Laboratory results published in patent publication EP4813979A1, “COMPOUND FOR EGFR PROTEIN DEGRADATION AND USE THEREOF” (TYK Medicines, Inc., priority 2023, dated 2025).

Tests used:
[1] = Pharmacokinetic tests in male SD rats; type: in vivo; conditions: oral gavage (po), 10 mg/kg, plasma; for AUC(0-inf) / AUC(0-t) / Cmax / MRT last / Tmax: rat
Protocol: Three healthy adult male SD rats, 6-8 weeks old, weighing 200-300 grams.
EDTA-Na2 anticoagulant, weighed 11.2 g EDTA-Na2 and placed it in a reagent bottle. Added 100 mL physiological saline and shaked to dissolve completely. After preparation, dispensed into 1.5 mL centrifuge tubes, each containing approximately 20 µL, for whole blood sample collection.
Accurately weighed approximately 10 mg the sample to be tested, added 10% of the converted total volume of DMSO to dissolve it, and then slowly added 90% of the total volume of 0.5% MC solvent while stirring. Sonicated and vortex to mix thoroughly to obtain a solution of the preparation that is considered to be homogeneous, with a concentration of 1 mg/mL. Prepared fresh immediately before use.
Piped 0.2 mL the sample into a 1.5 mL centrifuge tube and store at -80°C for analysis of the concentration of the drug solution.
Animals were housed in rat cages and fasted for at least 10 hours starting the day before the experiment, but water was allowed. On the day of the experiment, each animal was weighed and marked on its tail. Blank blood samples were collected before drug administration. Blood was collected via tail vein.
• Route of administration: Oral gavage (po); • Dosage concentration: 1 mg/ml; • Dosage: 10 mg/kg; • Dosage volume: 10 mL/kg; • Procedure: Hold the rat upright with your left hand wearing a bite-proof glove, insert the gavage needle into the throat through the mouth, and insert the needle when feeling no obvious resistance. Then inject the drug into the stomach.
Whole blood (0.1-0.2 ml) was collected from test animals at 0.5 h, 1 h, 2 h, 4 h, 6 h, 8 h, 12 h, and 24 h after drug administration. The samples were placed in EDTA-Na 2 anticoagulant tubes, inverted 3-4 times to mix, and centrifuged at 4°C, 2000 g for 5 min to separate the supernatant plasma. The plasma was promptly transferred to -80°C for storage until analysis. Blood was collected via tail vein.
A quantitative detection method for the analyte was established using Shimadzu liquid chromatography and Triple Quad™ 6500+AB mass spectrometry. The concentration of the parent drug in plasma was analyzed. The analytical results were controlled for variation using quality control samples, with the accuracy of the quality control samples expected to be between 80% and 120%.
The main pharmacokinetic parameters were calculated using a non-compartmental model in Winnonlin Phoenix software. These parameters included the area under the curve (AUC(0-t) and AUC(0-∞)), elimination half-life (T1/2), maximum plasma concentration (Cmax ), and time to reach maximum plasma concentration (Tmax).The results are shown in Table 3.

A549 = assay: Cell anti-proliferation experiment (CTG); type: cell-based; conditions: Homo sapiens, A549, 72 h, A549 (wild-type EGFR)
Text: (§1) H1975 has an EGFR: T790M/L858R double mutation, PC-9 has an EGFR exon 19 deletion, and HCC827 has an exon 19 deletion mutation. Baf3-19del- T790M -C797S (Baf3-DTC) is a stable Ba/F3 clone expressing exogenous EGFR gene bearing T790M, C797S, and […] triple amino acid mutations, purchased from KYinno. Baf3-L858R-T790M - C797S (Baf3-LTC) is a stable Ba/F3 clone expressing exogenous EGFR gene bearing […], T790M, and C797S triple mutations, purchased from KYinno. A549 is a wild-type EGFR, purchased from Nanjing Kebai Biotechnology. A431 is a wild-type EGFR, purchased from Shanghai Xinyu Biotechnology. CellCounting-Lite2.0, Trypsin EDTA, 37°C CO2 incubator, cell counter, EnVision Serial No. 1050454.
(§2) • A) Digested logarithmic phase cells with Trypsin EDTA, added culture medium to stop the reaction, and mixing well with a pipette to prepare a cell suspension. • B) Used Vi-cell to determine cell concentration, and prepared a suspension of 15,000-25,000 cells per milliliter according to the experimental purpose and cell characteristics. • C) After prepared the cell suspension, mixed it gently and added 100 µL to each well, so that the cell density to be tested is 1500-2500 per well.
(§3) • A) Weighed approximately 2 mg the compound and calculated the required volume of DMSO according to the formula: Compound mass (mg) * Compound purity (%) / Compound molecular weight * 1000. • B) Placed the inoculated cell culture plate into an incubator and incubated for about 24 hours. Then added compounds of varying concentrations. • C) Diluted the 10mM compound stock solution to […] with culture medium, and added the […] compound solution to the second column of the deep well plate in sequence, and added […] culture medium containing 0.5% DMSO to the third to eleventh columns. • D) Gradient dilution: Taked 125 µL solution from the second column and added it to the third column, mix well; then taked 125 µL solution from the third column and added it to the fourth column, repeated this operation until the tenth column. • E) Used a multichannel pipette, aspirated 25 µL the compound from the deep-well plate and added it to a 96-well culture plate. Repeated this process three times for each compound on the 96-well plate. This will ultimately create a concentration gradient of up to 10,000 nM at a 1:4 ratio on the 96-well plate.
(§4) • A) The effects of the compound were observed under an inverted microscope after the 96-well plate was incubated in an incubator for 72 hours. • B) Added 25 µL CTG solution to each well, placed on a shaker for 10 minutes, and read the […] of each well.
(§5) Calculate the % Cell Viability using the following formula: %Cell Viability = 100% × (Lum_Sample−Lum_LC)/(Lum_HC−Lum_LC) [formula] • Lum_HC: Cell readings from the 0.1% DMSO control group • Lum_Sample: Cell readings with added compound • Lum_LC: Blank culture medium reading
(§6) The IC50 value was obtained by curve fitting using GraphPad Prism 8 software.

[2] = test system: Baf3-L858R-T790M - C797S (Baf3-LTC); assay: Cell anti-proliferation experiment (CTG); type: cell-based; conditions: 72 h
Text: as §1, §2, §3, §4, §5, §6

H1975 = assay: Cell anti-proliferation experiment (CTG); type: cell-based; conditions: Homo sapiens, NCI-H1975, 72 h, H1975 (EGFR T790M/L858R)
Text: as §1, §2, §3, §4, §5, §6

[3] = test system: Baf3-19del- T790M -C797S (Baf3-DTC); assay: Cell anti-proliferation experiment (CTG); type: cell-based; conditions: 72 h
Text: as §1, §2, §3, §4, §5, §6

PC-9 = assay: Cell anti-proliferation experiment (CTG); type: cell-based; conditions: Homo sapiens, PC-9, 72 h, PC-9 (EGFR exon 19 deletion)
Text: as §1, §2, §3, §4, §5, §6

HCC827 = assay: Cell anti-proliferation experiment (CTG); type: cell-based; conditions: Homo sapiens, HCC827, 72 h, HCC827 (exon 19 deletion)
Text: as §1, §2, §3, §4, §5, §6

A431 = assay: Cell anti-proliferation experiment (CTG); type: cell-based; conditions: Homo sapiens, A-431, 72 h, A431 (wild-type EGFR)
Text: as §1, §2, §3, §4, §5, §6

Row | SMILES | IC50 (A549; class symbol) | IC50 ([2]; class symbol) | IC50 (H1975; class symbol) | IC50 ([3]; class symbol) | IC50 (PC-9; class symbol) | IC50 (HCC827; class symbol) | IC50 (A431; class symbol) | further results
1 | CCc1cc(Nc2ncc(Cl)c(Nc3ccccc3P(C)(C)=O)n2)c(OC)cc1N1CC2(CCN(C(=O)CN3CCC(c4cc5c(cc4F)c(N4CCC(=O)NC4=O)nn5C)CC3)CC2)C1 [TC-093] | > 1000 nM | 10 to 100 nM | 10 to 100 nM | 10 to 100 nM | 100 to 1000 nM | 10 to 100 nM | > 1000 nM | HL [1]: 3.43 h; AUC(0-inf) [1]: 4930 ng·h/mL; AUC(0-t) [1]: 5030 ng·h/mL; Cmax [1]: 665 ng/mL; MRT last [1]: 5.98 h; Tmax [1]: 4 h
2 | CCc1cc(Nc2ncc(Br)c(Nc3ccccc3P(C)(C)=O)n2)c(OC)cc1N1CCN(C(=O)CN2CCC(c3cc4c(cc3F)c(N3CCC(=O)NC3=O)nn4-c3ccccc3)C(F)(F)C2)CC1 (stereo not shown) [TC-150] | > 1000 nM | 10 to 100 nM | 100 to 1000 nM | 10 to 100 nM | > 1000 nM | 100 to 1000 nM | > 1000 nM | 
3 | CCc1cc(Nc2ncc(Cl)c(Nc3ccccc3P(C)(C)=O)n2)c(OC)cc1N1CCN(C(=O)CN2CCC(c3ccc4c(N5CCC(=O)NC5=O)nn(C)c4c3)C(F)(F)C2)CC1 (stereo not shown) [TC-215] | 100 to 1000 nM | < 10 nM | 100 to 1000 nM | < 10 nM | 100 to 1000 nM | 100 to 1000 nM | > 1000 nM | IC50 (A549; number after the class symbol): 326 nM; IC50 ([2]; number after the class symbol): 5.3 nM; IC50 (H1975; number after the class symbol): 164 nM; IC50 ([3]; number after the class symbol): 5.6 nM; IC50 (PC-9; number after the class symbol): 647 nM; IC50 (HCC827; number after the class symbol): 227 nM; IC50 (A431; number after the class symbol): 1070 nM
4 | CCc1cc(Nc2ncc(Cl)c(Nc3ccccc3P(C)(C)=O)n2)c(OC)cc1N1CCC(N(C)C(=O)CN2CCC(c3cc4c(cc3F)c(N3CCC(=O)NC3=O)nn4C)C(F)(F)C2)CC1 (stereo not shown) [TC-089] | > 1000 nM | 10 to 100 nM | 10 to 100 nM | 10 to 100 nM | 100 to 1000 nM | 100 to 1000 nM | > 1000 nM | 
5 | CCc1cc(Nc2ncc(Cl)c(Nc3ccccc3P(C)(C)=O)n2)c(OC)cc1N1CCC2(CCN(C(=O)CN3CCC(c4cc5c(cc4F)c(N4CCC(=O)NC4=O)nn5C)C(F)(F)C3)CC2)C1 (stereo not shown) [TC-111] | 100 to 1000 nM | 10 to 100 nM | 100 to 1000 nM | 10 to 100 nM | 100 to 1000 nM | 100 to 1000 nM | > 1000 nM | 
6 | CCc1cc(Nc2ncc(Cl)c(Nc3ccccc3P(C)(C)=O)n2)c2c(c1N1CCN(C(=O)CN3CCC(c4cc5c(cc4F)c(N4CCC(=O)NC4=O)nn5C)C(F)(F)C3)CC1)CCO2 (stereo not shown) [TC-135] | > 1000 nM | < 10 nM | 10 to 100 nM | < 10 nM | > 1000 nM | 100 to 1000 nM | > 1000 nM | 
7 | COc1nc(N2CCN(C(=O)CN3CCC(c4cc5c(cc4F)c(N4CCC(=O)NC4=O)nn5C)C(F)(F)C3)CC2)ccc1Nc1ncc(Cl)c(Nc2ccccc2P(C)(C)=O)n1 (stereo not shown) [TC-125] | 100 to 1000 nM | 10 to 100 nM | 100 to 1000 nM | 100 to 1000 nM | 100 to 1000 nM | 100 to 1000 nM | 100 to 1000 nM | 
8 | COc1cc(N2CCN(C(=O)CN3CCC(c4cc5c(cc4F)c(N4CCC(=O)NC4=O)nn5C)C(F)(F)C3)CC2)c(-c2cnn(C)c2)cc1Nc1ncc(Br)c(Nc2ccccc2P(C)(C)=O)n1 (stereo not shown) [TC-224] | 100 to 1000 nM | < 10 nM | 10 to 100 nM | < 10 nM | 100 to 1000 nM | 10 to 100 nM | 100 to 1000 nM | 
9 | CCc1cc(Nc2ncc(Br)c(Nc3ccccc3P(C)(C)=O)n2)c(OC)cc1N1CCN(C(=O)Cn2nc(C)c(-c3cc4c(cc3F)c(N3CCC(=O)NC3=O)nn4C)c2C)CC1 [TC-144] | 100 to 1000 nM | < 10 nM | 10 to 100 nM | < 10 nM | 100 to 1000 nM | 100 to 1000 nM | > 1000 nM | HL [1]: 3.21 h; AUC(0-inf) ([1]; in vivo): 4140 ng·h/mL; AUC(0-t) ([1]; in vivo): 4120 ng·h/mL; Cmax ([1]; in vivo): 700 ng/mL; MRT last ([1]; in vivo): 4.23 h; Tmax ([1]; in vivo): 0.67 h
10 | CCc1cc(Nc2ncc(Cl)c(Nc3ccccc3C(=O)NC)n2)c(OC)cc1N1CC2(CN(C(=O)CN3CCC(c4cc5c(cc4F)c(N4CCC(=O)NC4=O)nn5C)C(F)(F)C3)C2)C1 (stereo not shown) [TA-019] | > 1000 nM | 10 to 100 nM | < 10 nM | 10 to 100 nM | 100 to 1000 nM | > 1000 nM | > 1000 nM | 
11 | CCc1cc(Nc2ncc(Br)c(Nc3ccc(OC4CC4)cc3P(C)(C)=O)n2)c(OC)cc1N1CC2(CCN(C(=O)CN3CCC(c4cc5c(cc4F)c(N4CCC(=O)NC4=O)nn5C)C(F)(F)C3)CC2)C1 (stereo not shown) [TC-232] | > 1000 nM | < 10 nM | 10 to 100 nM | < 10 nM | 100 to 1000 nM | 10 to 100 nM | > 1000 nM | 
12 | CCc1cc(Nc2ncc(Cl)c(Nc3ccccc3P(C)(C)=O)n2)c(OC)nc1N1CCN(C(=O)CN2CCC(c3cc4c(cc3F)c(N3CCC(=O)NC3=O)nn4C)C(F)(F)C2)CC1 (stereo not shown) [TC-115] | 100 to 1000 nM | 10 to 100 nM | 100 to 1000 nM | 10 to 100 nM | 100 to 1000 nM | 100 to 1000 nM | > 1000 nM | 
